Usually IC50 stands for the concentration at which inhibition is half-maximal. Low readings indicate higher potency, high ones lower potency. A word on the CLint scaled: it is the capacity of the preparation to metabolise the compound, expressed as a volume cleared per time. The low end stands for greater metabolic stability, the high end for faster metabolism.

In series [1] the target is Melatonin MT1 (Homo sapiens, UniProt P48039). Kind of series: Lead Profiling Screen, Eurofins Panlabs. The class given is binding. The settings on record: Melatonin MT1, hum, read-out: % inh at 10 μM.
Series [2] addresses T1, CYP 2C9 (Homo sapiens, UniProt P11712).
T1 construct: from tissue; host or cells: pooled human liver microsomes (per the earlier reading)
In words: P450 inhibition in pooled human liver microsomes. The class given is in vitro ADME. The conditions noted are these: pooled HLM, NADPH, CYP-specific probe substrates; listed as VU6043653. On the technique in general: Liver microsomes are a subcellular fraction often used to study metabolism.

The target in series [3] is Platelet Activating Factor (PAF) (Homo sapiens, UniProt P25105). In words: Lead Profiling Screen, Eurofins Panlabs. The class given is binding. The settings on record: hum, read-out: % inh at 10 μM.
Series [4] concerns the target Glucocorticoid (Homo sapiens, UniProt P04150). Kind of series: Lead Profiling Screen, Eurofins Panlabs. The class given is binding. The settings on record: hum, read-out: % inh at 10 μM. An excerpt: (§1) Nonetheless, as a non-aryl/heterobiaryl acetylene mGlu5 NAM with an encouraging in vivo rodent PK profile, we wished to further assess VU6043653 as a novel chemotype. Therefore, we compared metabolites in multiple species to better understand species differences in clearance and metabolism. […] Consistent with the high plasma clearance observed in dogs, high turnover was observed more so in dog hepatocytes than any other species tested (see the Supporting Information for additional details and results). To further evaluate our novel chemotype, the off-target and safety/toxicity profiles for this compound were further investigated.
(§2) Table S2. Lead Profiling Screen – Eurofins Panlabs for VU6043653.

The target of series [5] is Histamine H1 (Homo sapiens, UniProt P35367). Kind of series: Lead Profiling Screen, Eurofins Panlabs. The class given is binding. The conditions noted are these: Histamine H1, hum, read-out: % inh at 10 μM.
Description: as §1, §2

Series [6] deals with Histamine H2 (Homo sapiens, UniProt P25021). In words: Lead Profiling Screen, Eurofins Panlabs. In kind it is binding. The settings on record: Histamine H2, hum, read-out: % inh at 10 μM.
Description: as §1, §2

The target in series [7] is Adrenergic α1D (Homo sapiens, UniProt P25100). Kind of series: Lead Profiling Screen, Eurofins Panlabs. The conditions noted are these: hum, read-out: % inh at 10 μM. In kind it is binding.
Description: as §1, §2

The target of series [8] is Estrogen Erα (Homo sapiens, UniProt P03372). Kind of series: Lead Profiling Screen, Eurofins Panlabs. The class given is binding. The settings on record: hum, read-out: % inh at 10 μM.
Description: as §1, §2

For series [9], the target named is Endothelin ETB (Homo sapiens, UniProt P24530). Kind of series: Lead Profiling Screen, Eurofins Panlabs. The class given is binding. The conditions noted are these: hum, read-out: % inh at 10 μM.
Description: as §1, §2

The subject of series [10] is Rolipram. Kind of series: Lead Profiling Screen, Eurofins Panlabs. The class given is binding. The settings on record: rat.
In series [11] the target is Androgen (Testosterone) (Homo sapiens, UniProt P10275). Kind of series: Lead Profiling Screen, Eurofins Panlabs. In kind it is binding. The conditions noted are these: hum, read-out: % inh at 10 μM.
Description: as §1, §2
(§3) Assay Name Species % inh at 10 μM
(§4) Androgen (Testosterone) hum 75
(§5) Calcium Channel L-Type, Benzothiazepine rat 22
(§6) Calcium Channel L-Type, Dihydropyridine rat 1
(§7) Calcium Channel N-Type rat -8
(§8) Epidermal Growth Factor (EGF) hum -3
(§9) GABAA, Flunitrazepam, Central rat 0
(§10) GABAA, Muscimol, Central rat -5
(§11) Glutamate, Kainate rat -7
(§12) Glutamate, NMDA, Agonism rat 3
(§13) Glutamate, NMDA, Glycine rat -18
(§14) Glutamate, NMDA, Phencyclidine rat -4
(§15) Imidazoline I2, Central rat -1

Series [12] addresses Adenosine A3 (Homo sapiens, UniProt P0DMS8). Kind of series: Lead Profiling Screen, Eurofins Panlabs. The conditions noted are these: Adenosine A3, hum, read-out: % inh at 10 μM. The class given is binding.
Description: as §1, §2, §3, §4, §5, §6, §7, §8, §9, §10, §11, §12, §13, §14, §15

The test system of series [13] is Sodium Channel, Site 2. Kind of series: Lead Profiling Screen, Eurofins Panlabs. In kind it is binding. The conditions noted are these: Site 2, rat.
A short description of series [14]: Intrinsic clearance in human liver microsomes. In kind it is in vitro ADME. As for the experimental part: Mean values for each species were calculated from 3 replicates.
Intrinsic Clearance in Rat and Human Liver Microsomes
The in vitro intrinsic clearance (CL int) was investigated in commercially obtained hepatic microsomes from rat and human donors using the substrate depletion (i.e., loss-of-parent vs. time, or t 1/2 method) approach with analyte detection via liquid chromatography-tandem mass spectrometry (LC-MS/MS). For each species, mean %parent remaining values at each time point were calculated from replicates raw data (analyte:IS peak area ratios) and used to determine in vitro t 1/2 and CLint.
Experiments were carried out using a robot-assisted (TECAN model Evo 200). Compound was incubated (1 µM final concentration) in buffer (100 mM potassium phosphate pH 7.4 with 3 mM MgCl2) containing hepatic microsomes (0.5 mg/mL final concentration) from multiple species, discretely, at 37 °C under constant orbital shaking. After 5 minutes (pre-incubation), reactions were initiated by addition of nicotinamide adenine dinucleotide phosphate (NADPH, 1 mM final concentration). At selected time intervals (0, 3, 7, 15, 25, and 45 minutes) post-addition of NADPH, aliquots (50 µL) were taken and placed into a 96-shallow-well plate containing ice cold acetonitrile (150 µL) with carbamazepine (IS, 50 nM). The plates were then centrifuged (3000 rcf at 4 °C) for 10 minutes. The supernatants were transferred to a new 96-shallow-well daughter plate and diluted (1:1 v/v) with water (Milli-Q filtered). The plates were then sealed in preparation for LC-MS/MS analysis (see below).
Raw LC-MS/MS peak area data generated from the assay samples were used to construct natural log-transformed %parent remaining vs. time plots (using t = 0 minute post-NADPH addition sample data as starting point set to 100%). In vitro compound half-life (t 1/2) values were obtained using the following […]
k is the slope from linear regression analysis of the natural log-transformed data (using means from Where all replicates at each time point). Resulting t 1/2 values were then used to calculate hepatic CLint values according to the following equation and with the use of species-specific scale-up factors for liver weight (grams) per total body weight (kg): […]
CLint = in vitro t1/2 x 0.5 mg microsomes x 1 gram liver x kg body wt aScale-up factors used are 45 (rat) and 20 (human).4
Predicted hepatic clearance (CLhep) was calculated using the following equation: […]
Qh represents hepatic blood flow (mL/min/kg): 21 for human, 70 for rat, and 90 for mouse.
Prepared samples were injected (10 µL each) onto an AB Sciex Triple Quad 4500 mass spectrometer system with an Agilent 1260 Infinity II pump and autosampler. Mass spectrometer conditions are described in Table S1. Quantitation of compounds was performed via AB Sciex Multiquant software using the raw analyte:IS peak area ratios. The typical detection range was 0.5 ng/mL to ≥ 5,000 ng/mL utilizing a quadratic equation regression with 1/x2 weighting.
Correction for dilution of all brain samples (in extraction buffer and subsequently in blank plasma, as previously described) was performed post-quantitation. The corrections for dilution in extraction buffer employed correction factors specific to each brain weight (not shown).

For series [15], the target named is hERG potassium channel (Homo sapiens, UniProt Q12809). In words: Lead Profiling Screen, Eurofins Panlabs. In kind it is binding. The settings on record: hum, read-out: % inh at 10 μM.
Series [16] has as its target Neuropeptide Y Y1 (Homo sapiens, UniProt P25929). Kind of series: Lead Profiling Screen, Eurofins Panlabs. In kind it is binding. The conditions noted are these: Neuropeptide Y Y1, hum, read-out: % inh at 10 μM.
In series [17] the target is Interleukin IL-1 R1 (Homo sapiens, UniProt P14778). Kind of series: Lead Profiling Screen, Eurofins Panlabs. The settings on record: Interleukin IL-1 R1, hum, read-out: % inh at 10 μM. In kind it is binding.

T1 sequence (P11712 whole entry): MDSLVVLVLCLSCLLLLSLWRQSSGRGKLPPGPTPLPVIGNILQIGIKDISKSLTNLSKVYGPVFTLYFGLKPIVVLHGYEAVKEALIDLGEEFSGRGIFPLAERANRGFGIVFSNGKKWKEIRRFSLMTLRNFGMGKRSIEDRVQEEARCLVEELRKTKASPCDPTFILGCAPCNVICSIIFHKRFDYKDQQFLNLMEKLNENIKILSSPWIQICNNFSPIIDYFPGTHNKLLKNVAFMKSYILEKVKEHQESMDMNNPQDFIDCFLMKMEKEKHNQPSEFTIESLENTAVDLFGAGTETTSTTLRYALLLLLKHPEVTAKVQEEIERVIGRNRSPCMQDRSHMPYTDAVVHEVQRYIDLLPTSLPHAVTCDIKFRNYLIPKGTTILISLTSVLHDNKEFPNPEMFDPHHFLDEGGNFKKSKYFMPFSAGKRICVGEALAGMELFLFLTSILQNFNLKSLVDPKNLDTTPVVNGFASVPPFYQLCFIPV
Histamine H2, sequence (P25021 whole entry): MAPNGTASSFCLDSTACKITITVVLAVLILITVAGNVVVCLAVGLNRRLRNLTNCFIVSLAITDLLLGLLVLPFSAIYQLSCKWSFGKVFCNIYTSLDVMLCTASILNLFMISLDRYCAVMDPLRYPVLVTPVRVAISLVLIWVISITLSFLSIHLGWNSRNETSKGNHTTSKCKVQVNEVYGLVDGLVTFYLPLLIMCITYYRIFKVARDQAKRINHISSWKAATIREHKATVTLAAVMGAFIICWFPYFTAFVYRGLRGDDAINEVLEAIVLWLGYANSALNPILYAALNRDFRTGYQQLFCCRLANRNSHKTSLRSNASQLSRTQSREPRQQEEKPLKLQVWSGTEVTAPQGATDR
Adenosine A3, sequence (P0DMS8 whole entry): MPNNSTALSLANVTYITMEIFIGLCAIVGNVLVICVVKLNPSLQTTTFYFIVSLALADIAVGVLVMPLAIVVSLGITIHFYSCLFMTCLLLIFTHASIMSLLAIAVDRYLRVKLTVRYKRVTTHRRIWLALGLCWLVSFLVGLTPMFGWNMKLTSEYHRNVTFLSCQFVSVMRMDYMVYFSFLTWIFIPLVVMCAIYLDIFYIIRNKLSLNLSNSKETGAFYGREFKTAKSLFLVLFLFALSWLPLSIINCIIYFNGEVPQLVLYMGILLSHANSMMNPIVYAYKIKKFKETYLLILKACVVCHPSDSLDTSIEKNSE
Androgen (Testosterone), sequence (P10275 whole entry): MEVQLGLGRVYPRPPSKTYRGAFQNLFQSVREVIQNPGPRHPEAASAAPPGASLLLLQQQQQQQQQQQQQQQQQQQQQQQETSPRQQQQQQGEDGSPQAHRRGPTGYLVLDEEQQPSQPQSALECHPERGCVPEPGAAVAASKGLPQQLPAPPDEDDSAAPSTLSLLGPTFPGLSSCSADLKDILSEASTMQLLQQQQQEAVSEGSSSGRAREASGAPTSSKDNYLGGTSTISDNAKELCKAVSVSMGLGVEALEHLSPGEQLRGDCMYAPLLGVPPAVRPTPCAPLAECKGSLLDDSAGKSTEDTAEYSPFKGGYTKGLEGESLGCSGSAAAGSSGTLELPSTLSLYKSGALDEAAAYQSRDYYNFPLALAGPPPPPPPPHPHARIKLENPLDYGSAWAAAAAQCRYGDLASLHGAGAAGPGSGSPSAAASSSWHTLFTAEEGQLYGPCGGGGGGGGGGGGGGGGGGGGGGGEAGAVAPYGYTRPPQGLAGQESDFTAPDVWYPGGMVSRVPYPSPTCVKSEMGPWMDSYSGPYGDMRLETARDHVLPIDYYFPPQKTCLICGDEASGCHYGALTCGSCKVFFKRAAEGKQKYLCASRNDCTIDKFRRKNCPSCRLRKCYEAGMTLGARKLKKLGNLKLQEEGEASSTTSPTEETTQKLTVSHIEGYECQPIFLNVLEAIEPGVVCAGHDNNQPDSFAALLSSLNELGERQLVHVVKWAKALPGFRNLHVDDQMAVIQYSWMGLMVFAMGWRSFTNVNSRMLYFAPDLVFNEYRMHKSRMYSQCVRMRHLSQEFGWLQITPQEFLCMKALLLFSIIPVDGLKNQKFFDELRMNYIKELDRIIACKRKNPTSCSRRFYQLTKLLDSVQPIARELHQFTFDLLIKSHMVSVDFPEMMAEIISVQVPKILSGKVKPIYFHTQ
Melatonin MT1, sequence (P48039 whole entry): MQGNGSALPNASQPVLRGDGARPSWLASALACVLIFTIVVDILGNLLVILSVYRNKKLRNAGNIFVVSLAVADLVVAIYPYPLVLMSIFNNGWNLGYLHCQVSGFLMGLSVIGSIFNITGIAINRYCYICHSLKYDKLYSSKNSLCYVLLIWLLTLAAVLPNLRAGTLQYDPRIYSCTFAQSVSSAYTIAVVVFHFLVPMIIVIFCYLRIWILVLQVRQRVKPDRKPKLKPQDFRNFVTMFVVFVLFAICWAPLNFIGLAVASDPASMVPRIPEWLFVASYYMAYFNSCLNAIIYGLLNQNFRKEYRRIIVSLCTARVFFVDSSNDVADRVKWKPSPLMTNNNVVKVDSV
Adrenergic α1D, sequence (P25100 whole entry): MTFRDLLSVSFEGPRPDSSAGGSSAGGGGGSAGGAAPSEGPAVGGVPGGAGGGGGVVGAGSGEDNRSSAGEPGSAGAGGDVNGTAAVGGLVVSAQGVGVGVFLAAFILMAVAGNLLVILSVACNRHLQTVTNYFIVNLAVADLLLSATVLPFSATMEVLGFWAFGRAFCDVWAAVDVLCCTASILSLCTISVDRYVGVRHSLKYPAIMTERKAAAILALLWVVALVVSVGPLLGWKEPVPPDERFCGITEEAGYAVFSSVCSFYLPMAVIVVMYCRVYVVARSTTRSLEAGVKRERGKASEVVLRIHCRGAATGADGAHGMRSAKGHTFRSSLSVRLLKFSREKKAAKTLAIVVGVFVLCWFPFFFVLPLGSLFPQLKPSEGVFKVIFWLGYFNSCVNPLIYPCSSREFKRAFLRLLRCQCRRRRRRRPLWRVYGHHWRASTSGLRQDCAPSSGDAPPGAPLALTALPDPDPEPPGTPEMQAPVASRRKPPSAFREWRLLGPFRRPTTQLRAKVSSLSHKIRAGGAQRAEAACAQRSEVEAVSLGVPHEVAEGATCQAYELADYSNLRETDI
Endothelin ETB, sequence (P24530 27-442): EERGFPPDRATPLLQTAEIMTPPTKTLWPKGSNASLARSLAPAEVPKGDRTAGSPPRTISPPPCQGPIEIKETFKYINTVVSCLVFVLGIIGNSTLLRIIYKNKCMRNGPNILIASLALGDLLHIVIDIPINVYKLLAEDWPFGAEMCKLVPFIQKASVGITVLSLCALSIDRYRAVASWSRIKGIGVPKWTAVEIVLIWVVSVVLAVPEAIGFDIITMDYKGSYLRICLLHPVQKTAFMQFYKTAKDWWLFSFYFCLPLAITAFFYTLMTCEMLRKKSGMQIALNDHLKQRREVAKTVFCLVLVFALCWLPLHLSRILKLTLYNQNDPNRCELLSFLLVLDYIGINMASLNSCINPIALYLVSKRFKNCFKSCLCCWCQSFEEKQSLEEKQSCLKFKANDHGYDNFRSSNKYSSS
Histamine H1, sequence (P35367 whole entry): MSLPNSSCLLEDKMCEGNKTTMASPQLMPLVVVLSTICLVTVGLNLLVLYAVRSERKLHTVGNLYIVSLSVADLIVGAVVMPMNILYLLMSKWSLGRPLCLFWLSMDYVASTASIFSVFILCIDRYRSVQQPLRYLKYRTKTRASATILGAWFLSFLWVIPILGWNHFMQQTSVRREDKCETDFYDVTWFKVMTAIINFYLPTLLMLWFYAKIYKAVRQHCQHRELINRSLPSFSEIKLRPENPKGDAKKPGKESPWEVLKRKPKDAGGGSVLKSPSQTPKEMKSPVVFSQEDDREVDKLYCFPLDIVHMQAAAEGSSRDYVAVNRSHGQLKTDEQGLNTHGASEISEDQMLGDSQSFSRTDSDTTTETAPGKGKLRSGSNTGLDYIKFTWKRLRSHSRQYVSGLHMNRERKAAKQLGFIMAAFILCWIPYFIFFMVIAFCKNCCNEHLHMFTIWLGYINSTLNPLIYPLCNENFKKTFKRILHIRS
Platelet Activating Factor (PAF), sequence (P25105 whole entry): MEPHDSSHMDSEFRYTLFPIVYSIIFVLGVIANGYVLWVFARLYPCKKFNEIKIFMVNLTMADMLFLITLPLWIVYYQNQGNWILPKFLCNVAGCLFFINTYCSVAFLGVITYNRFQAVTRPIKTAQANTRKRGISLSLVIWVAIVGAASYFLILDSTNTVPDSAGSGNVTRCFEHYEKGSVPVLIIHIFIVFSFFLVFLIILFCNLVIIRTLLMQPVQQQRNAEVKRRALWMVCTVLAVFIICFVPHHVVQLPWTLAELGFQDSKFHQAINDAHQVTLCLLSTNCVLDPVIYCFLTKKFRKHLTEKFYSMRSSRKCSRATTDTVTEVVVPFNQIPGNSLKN
Neuropeptide Y Y1, sequence (P25929 whole entry): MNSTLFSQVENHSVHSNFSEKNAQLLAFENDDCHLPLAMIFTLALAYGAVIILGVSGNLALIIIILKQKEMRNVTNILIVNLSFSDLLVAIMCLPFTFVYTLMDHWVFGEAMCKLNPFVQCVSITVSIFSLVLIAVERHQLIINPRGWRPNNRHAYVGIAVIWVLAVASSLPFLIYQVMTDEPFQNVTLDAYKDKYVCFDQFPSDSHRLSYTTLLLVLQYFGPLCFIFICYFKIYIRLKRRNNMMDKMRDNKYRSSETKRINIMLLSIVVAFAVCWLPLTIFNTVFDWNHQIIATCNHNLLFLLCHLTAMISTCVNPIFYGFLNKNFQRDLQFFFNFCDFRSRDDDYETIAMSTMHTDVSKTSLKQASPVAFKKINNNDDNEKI

For `Cc1cc(Oc2cnn(C)c2)cc(C(=O)Nc2ccc(F)cn2)n1` [22iA], the inhibition at 10 µM in series [1] is 15%; in [3], 3%; in series [4] it was 10%; in [5], 24%; in series [6] it was -4%; in [7], 3%. For the same molecule, the inhibition at 10 µM is 4% in series [8]; -13% in series [9]; not below 70% in series [11]; not below 70% in series [12]; 14% in [15]; -2% in series [16]. Besides, the inhibition at 10 µM in series [17] is -7%. In addition, the IC50 in series [2] is not below 30 µM. Moreover, the “% inh at 10 μM” value is -2% in series [10] and 25% in series [13]. The molecule further gave a CLint scaled at 40 min, 1 µM in [14] (pH 7.4, human liver microsomes) of 0.54 L/h/kg. Besides, in series [14] (predicted hepatic clearance based on microsomal CLint), the “CLhep, human” value was 0.36 L/h/kg.

Source of the values: article PMC11647725, “Discovery of 4-(5-Membered)Heteroarylether-6-methylpicolinamide Negative Allosteric Modulators of Metabotropic Glutamate Receptor Subtype 5” (ACS Medicinal Chemistry Letters, 2024).
